Measured values reported in article PMC9870890 (Nature Communications, 2023).
Changes are numbered by the printed parent chain. Where “and” joins values, the source holds several entries; their conditions need not be identical. Equal entries are not always repeated.

Assays:
[1] = target: T1, M2R (Homo sapiens, UniProt P08172); assay: biochemical; assay type: binding; design: expressed in transfected cells; conditions: for IC50: IC50 ([3H]-NMS competition)
T1 sequence (P08172 1-466): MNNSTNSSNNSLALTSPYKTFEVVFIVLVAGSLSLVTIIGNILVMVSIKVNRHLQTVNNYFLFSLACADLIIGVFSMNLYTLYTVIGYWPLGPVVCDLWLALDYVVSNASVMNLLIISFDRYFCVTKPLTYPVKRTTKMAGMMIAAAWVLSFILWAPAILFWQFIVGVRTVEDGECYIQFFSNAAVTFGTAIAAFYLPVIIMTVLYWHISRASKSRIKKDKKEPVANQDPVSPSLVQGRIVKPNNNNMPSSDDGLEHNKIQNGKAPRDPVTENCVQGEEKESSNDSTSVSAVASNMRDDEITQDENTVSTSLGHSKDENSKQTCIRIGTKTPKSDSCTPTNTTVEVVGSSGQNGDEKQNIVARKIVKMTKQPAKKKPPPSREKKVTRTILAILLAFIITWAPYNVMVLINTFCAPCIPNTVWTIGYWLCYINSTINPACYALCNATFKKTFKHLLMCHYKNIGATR
Protocol: Purified M2R receptor was reconstituted into high-density lipoprotein (HDL) particles constituting apolipoprotein A1(APOA1) and mixture of POPG: POPC lipids with 3:2 (mol:mol)ratio as previously described. […] Membranes or HDL particles were separated from excess [^3H]-NMS by Whatman GF/B filters using a Brandel 48-well harvester. The bound radioligand were read on a liquid scintillation counter (MicroBeta Jet, PerkinElmer). Data were analyzed by GraphPad Prism 9.2.0.

[2] = target: T2, M2R L129^34.51A mutant (Homo sapiens, UniProt P08172, L129A); assay: NanoBiT-GoA dissociation assay, L129A mutant M2R
T2 sequence (P08172 1-466 L129A): T1 sequence (P08172 1-466) with L129A
Protocol: Plasmid transfection for HEK293A cells (Thermo Fisher Scientific) was performed by combining 25 µl (volume is per 10-cm culture dish) of polyethylenimine solution (1 mg/mL) and a mixture of plasmids each encoding the large fragment (LgBiT)-containing the GαoA subunit (500 ng), the small fragment (SmBiT)-fused Gγ2 subunit with the C68S mutation (2.5 µg) and the untagged Gβ1 subunit (2.5 µg), along with a human, wild-type M2R (1 µg; containing N-terminal HA-derived signal sequence followed by the FLAG-epitope tag). After an incubation for one day, the transfected cells were harvested, pelleted with centrifugation, and suspended in 9 ml of Hank’s balanced saline solution (HBSS) containing 0.01% bovine serum albumin (BSA fatty acid–free grade, SERVA) and 5 mM HEPES (pH 7.4) (assay buffer). The cell suspension was dispensed in a white 96-well plate at a volume of 70 µl per well and mixed with 20 µl of 50 µM coelenterazine (Carbosynth) diluted in the assay buffer. […] Kinetics data points from 5 min to 10 min were averaged and normalized to the initial count and used as a G-protein dissociation index. For the mutant study, the cell culture and the transfection mixture were scaled down to a 6-cm dish (4 ml culture media) and the transfected cells were suspended in 4 ml of the assay buffer and seeded in the 96-well plate at a volume of 80 µL. The G-protein dissociation signals were fitted to a four-parameter sigmoidal concentration-response curve (GraphPad Prism8). For each experiment, we calculated Emax by normalizing Span to the LY2119620-free condition and ∆pEC50 by subtracting pEC50 of the LY2119620-free condition performed in parallel and used the values to denote allosteric modulator activity. Similarly, for the mutant study, we calculated ∆pEC50 by subtracting pEC50 of the WT (1:1) condition performed in parallel.

[3] = tested on: Mock; assay: NanoBiT-GoA dissociation assay, Mock-transfected cells (control); assay type: cell-based
[4] = target: T3, human, wild-type M2R (Homo sapiens, UniProt P08172); assay: NanoBiT-G-protein (GoA) dissociation assay, wild-type M2R, HEK293A cells; assay type: cell-based; conditions: for NanoBiT-GoA dissociation signal, Mean (Veh = 1.000): n = 4
T3 construct: expressed in transfected cells; host or cells: HEK293A
T3 sequence (P08172 1-466): T1 sequence (P08172 1-466)
Protocol: Plasmid transfection for HEK293A cells (Thermo Fisher Scientific) was performed by combining 25 µl (volume is per 10-cm culture dish) of polyethylenimine solution (1 mg/mL) and a mixture of plasmids each encoding the large fragment (LgBiT)-containing the GαoA subunit (500 ng), the small fragment (SmBiT)-fused Gγ2 subunit with the C68S mutation (2.5 µg) and the untagged Gβ1 subunit (2.5 µg), along with a human, wild-type M2R (1 µg; containing N-terminal HA-derived signal sequence followed by the FLAG-epitope tag). After an incubation for one day, the transfected cells were harvested, pelleted with centrifugation, and suspended in 9 ml of Hank’s balanced saline solution (HBSS) containing 0.01% bovine serum albumin (BSA fatty acid–free grade, SERVA) and 5 mM HEPES (pH 7.4) (assay buffer). The cell suspension was dispensed in a white 96-well plate at a volume of 70 µl per well and mixed with 20 µl of 50 µM coelenterazine (Carbosynth) diluted in the assay buffer. After 2 h incubation at room temperature, the plate was measured for baseline luminescence (SpectraMax L, Molecular Devices) and 10 µl of titrated concentrations of LY2119620 diluted in the assay buffer were added. […] Kinetics data points from 5 min to 10 min were averaged and normalized to the initial count and used as a G-protein dissociation index. […] The G-protein dissociation signals were fitted to a four-parameter sigmoidal concentration-response curve (GraphPad Prism8). For each experiment, we calculated Emax by normalizing Span to the LY2119620-free condition and ∆pEC50 by subtracting pEC50 of the LY2119620-free condition performed in parallel and used the values to denote allosteric modulator activity.

[5] = target: T4, M2R and GoA (Homo sapiens, UniProt P08172); assay: GTPase-Glo assay (GTP turnover) with purified M2R and GoA; assay type: biochemical; conditions: for Residual GTP (%): 90 min, normalized to GoA alone
T4 construct: FLAG (N); 8xHis (C); made in house; host or cells: Sf9 insect cells (receptor)
Protocol: The receptors for GTPase-Glo^TM assay were expressed and purified as described above and frozen at −80 °C before use. […] The GTPase reaction was incubated at room temperature (22–25 °C) for different times (15–90 min). […] After incubation, 5 μL reconstituted 1xGTPase-Glo^TM Reagent (Promega) was added to the completed GTPase reaction, mixed briefly and incubated with shaking for 30 min at room temperature (22–25 °C) to convert the remaining GTP into ATP. Then 10 μL Detection Reagent (Promega) was added to the system and incubated for 5-10 min at room temperature (22–25 °C) to convert the ATP into luminescent signals. Luminescence intensity was quantified using a Multimode Plate Reader (PerkinElmer) luminescence counter.

T4 sequence (P59768 2-68, one chain of several): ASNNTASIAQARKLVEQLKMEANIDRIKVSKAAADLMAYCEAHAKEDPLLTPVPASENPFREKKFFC
T4 sequence (P09471 2-354, one chain of several, further chain): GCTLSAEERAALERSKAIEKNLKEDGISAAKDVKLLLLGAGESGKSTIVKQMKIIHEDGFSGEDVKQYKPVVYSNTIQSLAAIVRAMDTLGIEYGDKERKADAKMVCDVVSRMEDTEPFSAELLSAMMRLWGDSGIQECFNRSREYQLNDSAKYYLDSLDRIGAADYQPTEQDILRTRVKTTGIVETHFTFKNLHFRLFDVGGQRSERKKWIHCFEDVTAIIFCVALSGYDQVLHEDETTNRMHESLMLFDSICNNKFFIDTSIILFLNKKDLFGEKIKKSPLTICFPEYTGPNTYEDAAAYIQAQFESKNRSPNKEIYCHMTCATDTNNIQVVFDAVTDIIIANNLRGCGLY
T4 sequence (P62873 whole entry, one chain of several, further chain): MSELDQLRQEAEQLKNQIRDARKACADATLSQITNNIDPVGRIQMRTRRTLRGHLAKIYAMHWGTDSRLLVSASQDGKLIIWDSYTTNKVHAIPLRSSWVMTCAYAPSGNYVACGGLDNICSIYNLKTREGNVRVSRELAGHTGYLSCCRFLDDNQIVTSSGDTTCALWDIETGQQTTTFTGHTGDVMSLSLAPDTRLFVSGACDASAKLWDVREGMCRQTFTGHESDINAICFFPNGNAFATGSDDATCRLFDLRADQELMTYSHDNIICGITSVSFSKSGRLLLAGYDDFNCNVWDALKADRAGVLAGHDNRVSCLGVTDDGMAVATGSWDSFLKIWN

C[N+](C)(C)CC#CCOC1=NOCC1 [Ixo, iperoxo]
IC50 ([1]; M2R in HDL particles, +GoA): 1.8 nM | IC50 ([1]; M2R in HDL particles, absence of GoA): 47.7 nM | increase of affinity on addition of GoA ([1]; M2R in HDL particles): ~ 27 fold | competition curve data, Fig. 1b ([3H]-NMS binding) ([1]; log[M] -6, without GoA): 5.629 and 5.897 and 4.938 | competition curve data, Fig. 1b ([3H]-NMS binding) ([1]; log[M] -7, +GoA): 1.735 and 2.591 | competition curve data, Fig. 1b ([3H]-NMS binding) ([1]; log[M] -7, without GoA): 32.2784 and 32.9838 and 32.0245 | competition curve data, Fig. 1b ([3H]-NMS binding) ([1]; log[M] -8, +GoA): 6.41 and 4.7831 and 8.225 | competition curve data, Fig. 1b ([3H]-NMS binding) ([1]; log[M] -8, without GoA): 80.5549 and 71.1592 and 70.0024 | competition curve data, Fig. 1b ([3H]-NMS binding) ([1]; log[M] -9, +GoA): 64.4578 and 59.7146 and 77.1975 | competition curve data, Fig. 1b ([3H]-NMS binding) ([1]; log[M] -9, without GoA): 92.3489 and 93.3083 and 87.8063 | competition curve data, Fig. 1b ([3H]-NMS binding) ([1]; log[M] -10, +GoA): 85.6735 and 79.355 and 99.5434 | competition curve data, Fig. 1b ([3H]-NMS binding) ([1]; log[M] -10, without GoA): 97.3148 and 101.914 and 100.771 | competition curve data, Fig. 1b ([3H]-NMS binding) ([1]; log[M] -11, +GoA): 89.0468 and 92.1461 and 118.807 | competition curve data, Fig. 1b ([3H]-NMS binding) ([1]; log[M] -11, without GoA): 86.0992 and 80.6395 and 89.0477 | competition curve data, Fig. 1b ([3H]-NMS binding) ([1]; log[M] -12, +GoA): 107.797 and 98.7044 and 86.8037 | competition curve data, Fig. 1b ([3H]-NMS binding) ([1]; log[M] -12, without GoA): 98.7115 and 87.2702 and 99.5439 | ∆pEC50 [2]: -0.434 and -0.475 and -0.315 | NanoBiT-GoA dissociation signal, Mean (Veh = 1.000) ([2]; IXO Log [M] -6, n = 3): 0.336 | NanoBiT-GoA dissociation signal, Mean (Veh = 1.000) ([2]; IXO Log [M] -7, n = 3): 0.355 | NanoBiT-GoA dissociation signal, Mean (Veh = 1.000) ([2]; IXO Log [M] -8, n = 3): 0.423 | NanoBiT-GoA dissociation signal, Mean (Veh = 1.000) ([2]; IXO Log [M] -9, n = 3): 0.635 | NanoBiT-GoA dissociation signal, Mean (Veh = 1.000) ([2]; IXO Log [M] -10, n = 3): 0.887 | NanoBiT-GoA dissociation signal, Mean (Veh = 1.000) ([2]; IXO Log [M] -11, n = 3): 0.985 | NanoBiT-GoA dissociation signal, Mean (Veh = 1.000) ([2]; IXO Log [M] -12, n = 3): 1.001 | NanoBiT-GoA dissociation signal, Mean (Veh = 1.000) ([3]; IXO Log [M] -6, n = 3): 0.990 | NanoBiT-GoA dissociation signal, Mean (Veh = 1.000) ([3]; IXO Log [M] -7, n = 3): 0.997 | NanoBiT-GoA dissociation signal, Mean (Veh = 1.000) ([3]; IXO Log [M] -8, n = 3): 0.995 | NanoBiT-GoA dissociation signal, Mean (Veh = 1.000) ([3]; IXO Log [M] -9, n = 3): 1.002 | NanoBiT-GoA dissociation signal, Mean (Veh = 1.000) ([3]; IXO Log [M] -10, n = 3): 1.001 | NanoBiT-GoA dissociation signal, Mean (Veh = 1.000) ([3]; IXO Log [M] -11, n = 3): 1.005 | NanoBiT-GoA dissociation signal, Mean (Veh = 1.000) ([3]; IXO Log [M] -12, n = 3): 1.002 | ∆pEC50 ([4]; WT (1:1), reference): 0.000 | NanoBiT-GoA dissociation signal, Mean (Veh = 1.000) ([4]; WT (1:1), IXO Log [M] -6): 0.334 | NanoBiT-GoA dissociation signal, Mean (Veh = 1.000) ([4]; WT (1:1), IXO Log [M] -7): 0.343 | NanoBiT-GoA dissociation signal, Mean (Veh = 1.000) ([4]; WT (1:1), IXO Log [M] -8): 0.377 | NanoBiT-GoA dissociation signal, Mean (Veh = 1.000) ([4]; WT (1:1), IXO Log [M] -9): 0.510 | NanoBiT-GoA dissociation signal, Mean (Veh = 1.000) ([4]; WT (1:1), IXO Log [M] -10): 0.788 | NanoBiT-GoA dissociation signal, Mean (Veh = 1.000) ([4]; WT (1:1), IXO Log [M] -11): 0.961 | NanoBiT-GoA dissociation signal, Mean (Veh = 1.000) ([4]; WT (1:1), IXO Log [M] -12): 1.000 | ∆pEC50 ([4]; WT (1:2)): -0.203 and -0.153 and -0.342 and -0.212 | NanoBiT-GoA dissociation signal, Mean (Veh = 1.000) ([4]; WT (1:2), IXO Log [M] -6): 0.338 | NanoBiT-GoA dissociation signal, Mean (Veh = 1.000) ([4]; WT (1:2), IXO Log [M] -7): 0.345 | NanoBiT-GoA dissociation signal, Mean (Veh = 1.000) ([4]; WT (1:2), IXO Log [M] -8): 0.397 | NanoBiT-GoA dissociation signal, Mean (Veh = 1.000) ([4]; WT (1:2), IXO Log [M] -9): 0.567 | NanoBiT-GoA dissociation signal, Mean (Veh = 1.000) ([4]; WT (1:2), IXO Log [M] -10): 0.844 | NanoBiT-GoA dissociation signal, Mean (Veh = 1.000) ([4]; WT (1:2), IXO Log [M] -11): 0.975 | NanoBiT-GoA dissociation signal, Mean (Veh = 1.000) ([4]; WT (1:2), IXO Log [M] -12): 1.005 | Residual GTP (%) ([5]; +DMSO): 7.331% and 3.598% and 1.619% | Residual GTP (%) ([5]; +LY2119620 (100 μM)): 34.958% and 41.3656% and 22.0231% | GTP-turnover, Fig. 1c (GTPase-Glo luminescence) ([5]; time 15 min, 100 μM ACh or 10 μM Ixo, M2R-GoA): 432481 and 362971 and 431239 and 324973
